Data from US6410328B1, “Sensitizing cells to compounds using lipid-mediated gene and compound delivery” (Protiva Biotherapeutics Inc., priority 1998, dated 2002).

How the values were obtained:
[1] = Organ biodistribution of free and liposomal GCV in B16 tumored mice (Example 10); format: in vivo, mouse
Procedure: (§1) Groups of four female C57BL/6 mice per time point were injected subcutaneously with 150,000 B16 tumor cells. The tumors were grown for 14 days at which time a single iv dose of free GCV or liposomal GCV was given via the lateral tail vein. This dose, given in a total of 200 μL, contained approximately 5.6 mg (10 μmoles) lipid and 0.5 mg (1.96 μmoles) GCV resulting in lipid and GCV doses of 300 mg/kg and 25 mg/kg, respectively. Circulating levels of lipid and GCV were determined at 15 min, 1, 8, 24 and 48 hrs for the liposomal GCV groups. Levels of GCV were determined at 15 min and 1 hr for the free GCV groups. At each time point, animals were anesthetized with ketamine/xylazine and blood was collected via cardiac puncture. Blood was put into EDTA coated microtainers and spun at 500 g for 10 min in order to pellet blood cells and obtain plasma. Lipid and GCV levels in the plasma were determined. Lipid and GCV were measured by counting ^14C-CHE and ^3H-GCV. One hundred or 200 μL aliquots of plasma were measured on a Beckman LS3801 scintillation counter.
Biodistribution data was collected from those mice that were in the pharmacokinetic studies. Following heart puncture, mice were terminated by cervical dislocation. Tissues were harvested from each animal and weighed. Saline was added to each organ prior to homogenization by either a Polytron homogenizer (livers) or a Fast Prep® machine. Tissues were solubilized in Solvable for 3 to 16 hr at 50° C. The samples were then cooled to room temperature before defoaming and decolourizing with EDTA and hydrogen peroxide respectively. Picofluorscintillation fluid was added to the samples prior to counting on the scintillation counter.

[2] = tested on: B16 murine melanoma cells stably transfected with HSV-TK; assay: Efficacy of liposomal ganciclovir in the B16TK tumor model (Example 11); format: in vivo, mouse; conditions: day 18; 25 mg/kg ganciclovir every other day from day five, six injections
Procedure: FIG. 13 illustrates efficacy of liposomal ganciclovir in the B16TK tumor model. Female C57BL/6 mice were seeded subcutaneously in the hind flank with 150,000 B16 murine melanoma cells stably transfected with HSV-TK. Five days later, tumor measurement began. Starting on day five, mice were treated with liposomal or free GCV (25 mg/kg ganciclovir) or HBS (Hepes Buffered Saline) every other day for a total of six injections. Measurements at day 18 indicate that tumors in the control mice are 5-fold larger than those of the treated groups. Tumor volume was determined by measuring tumor in three dimensions with calipers.
Groups of 4 or 5 female C57BL/6 mice were injected intradermally with B16 cells stably transfected with HSV-TK. Once tumors were measurable (day 5), the mice were injected intravenously with liposomal GCV (25 mg/kg GCV). Injections were continued every other day for 6 injections. Tumor measurements were typically taken every other day.

[3] = Plasma clearance and in vivo release of free and liposomal GCV in B16 tumored mice (Example 9); parameters: species or system mouse; conditions: 1 hr after single iv dose, 25 mg/kg GCV
Procedure: Large unilamellar vesicles were prepared according to the method of Hope, et al., Biochem. Biophys. Acta. 812:55-65 (1985). 55 mole % sphingomyelin and 45 mole % of cholesterol were dissolved in chloroform with a drop of methanol and approximately 0.035 μCi of ^14C-CHE. Lipids were dried down under a stream of nitrogen gas and the resulting lipid film was then placed under high vacuum for at least 3 hrs. A solution of ganciclovir containing ^3H-GCV was made up in 30% ethanol, 70% HBS (20 mM Hepes, 145 mM NaCl pH 7.45) to 50 or 100 mg/mL depending on the sample size. The lipid to GCV weight ratio was initially 1 to 1. The GCV solution was added to the lipid film. […] The lipid concentration was determined by scintillation counting of ^14C-CHE label. The GCV concentration was determined by counting ^3H-GCV and a Bligh Dyer assay.
Groups of four female C57BL/6 mice per time point were injected subcutaneously with 150,000 B16 tumor cells. […] Circulating levels of lipid and GCV were determined at 15 min, 1, 8, 24 and 48 hrs for the liposomal GCV groups. Levels of GCV were determined at 15 min and 1 hr for the free GCV groups. […] Lipid and GCV levels in the plasma were determined. Lipid and GCV were measured by counting ^14C-CHE and ^3H-GCV. One hundred or 200 μL aliquots of plasma were measured on a Beckman LS3801 scintillation counter.

[4] = in vivo; conditions: female, C57BL/6, mouse, iv, 25 mg/kg
Procedure: as §1, with “counter. […]” for “counter.”
Tumor bearing mice were treated intravenously with 25 mg/kg of free or liposomal GCV. Lipid and GCV were quantified using ^14C-CHE and ^3H-GCV labels. […] Free ganciclovir is rapidly cleared from the tumor, with only 1.1+/−0.1 % of the total injected dose per gram of tumor detected at 1 hr. […]

GCV content of organs assayed (liver, lungs, spleen, kidneys) ([1]; 15 min and 1 hr, except kidneys at 15 min): essentially absent
GCV found in the kidneys ([1]; 15 minute time point): 3.5+/−1.8 % of the total injected dose
GCV found in the liver ([1]; 15 minutes after administration): 3.1+/−0.1 % of the initial injected dose
GCV in the spleen ([1]; 1 hr (peak for liposomal GCV)): 0.04+/−0.02 % of the total injected dose
injected dose remaining in circulation [3]: 0.4 % of the injected dose
tissue uptake at 1 h [4]: 1.1 %ID/g
Compound: Nc1nc(O)c2ncn(COC(CO)CO)c2n1 [free GCV, ganciclovir]
tumor size in control HBS-treated mice relative to treated groups [2]: 5 fold
